# Measurements from article PMC7067850, “Identification of highly potent and selective inhibitor, TIPTP, of the p22phox-Rubicon axis as a therapeutic agent for rheumatoid arthritis” (Scientific Reports, 2020).
# Biological target: T1, p22phox–Rubicon interaction (Homo sapiens, UniProt P13498)
# T1 construct: The plasmid encoding full-length of the p22phox (V5-p22phox) and Rubicon (Flag-Rubicon) were previously described; expressed in transfected cells; host or cells: HEK293T (293T) cells, transient co-transfection
# T1 sequence (P13498 1-195): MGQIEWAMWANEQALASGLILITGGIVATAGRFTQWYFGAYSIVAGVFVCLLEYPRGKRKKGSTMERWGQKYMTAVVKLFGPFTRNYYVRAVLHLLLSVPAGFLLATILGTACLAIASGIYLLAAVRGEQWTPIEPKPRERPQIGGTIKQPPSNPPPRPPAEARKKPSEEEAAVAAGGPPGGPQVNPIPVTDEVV
# Experiment: p22phox–Rubicon interaction, co-IP in 293T cells co-transfected with V5-p22phox and Flag-Rubicon
# Format: cell-based
# Details: inhibition of p22phox–Rubicon interaction, compounds 0.01-20 μM for 24 h (Supplemental Fig. 5a)
# Method: Immunoblot and immunoprecipitation assays were performed as described previously[18],[23]. For immunoprecipitation, cells were harvested and then lysed in NP-40 buffer supplemented with a complete protease inhibitor cocktail (Roche). After pre-clearing with protein A/G agarose beads (GE Healthcare Life Science) for 1 h at 4 °C, whole-cell lysates were used for immunoprecipitation with the indicated antibodies. Generally, 1–4 μg of commercial antibody was added to 1 ml of cell lysates and incubated at 4 °C for 8 to 12 h. After the addition of protein A/G agarose beads for 6 h, immunoprecipitants were extensively washed with lysis buffer and eluted with SDS loading buffer by boiling for 5 min.
# For immunoblotting, polypeptides were resolved by SDS-polyacrylamide gel electrophoresis and transferred to a PVDF membrane (Bio-Rad). […] Antibody binding was visualized by chemiluminescence (ECL; Millipore) and detected by a Vilber chemiluminescence analyzer (Fusion SL 3; Vilber Lourmat).
# (a) 293T cells were co-transfected with V5-p22phox and Flag-Rubicon. 12 h post transfection, cells were treated with compound 1 or 2 (0.01, 0.1, 1, 5, 10, 20 μM) for 24 h, and subjected to IP with αFlag, followed by IB with αV5. WCLs were used for IB with αFlag, αV5, or αActin. […]
smiles,measurement,value
"C[C@@H](Oc1cccc(-n2cc3c(n2)CCCC3)c1)C(=O)Nc1nnc(C(F)(F)F)s1 [TIPTP, (R)-2-(3-(4,5,6,7-tetrahydro-2H-indazol-2-yl)phenoxy)-N-(5-(trifluoromethyl)-1,3,4-thiadiazol-2-yl)propanamide]",IC50,100 nM
